Columns and labels:
[1] = target: Prostaglandin G/H synthase 1 (Homo sapiens, UniProt P23219)
[2] = target: T1, Prostaglandin G/H synthase 2 (Homo sapiens, UniProt P35354)
T1 sequence (P35354 whole entry): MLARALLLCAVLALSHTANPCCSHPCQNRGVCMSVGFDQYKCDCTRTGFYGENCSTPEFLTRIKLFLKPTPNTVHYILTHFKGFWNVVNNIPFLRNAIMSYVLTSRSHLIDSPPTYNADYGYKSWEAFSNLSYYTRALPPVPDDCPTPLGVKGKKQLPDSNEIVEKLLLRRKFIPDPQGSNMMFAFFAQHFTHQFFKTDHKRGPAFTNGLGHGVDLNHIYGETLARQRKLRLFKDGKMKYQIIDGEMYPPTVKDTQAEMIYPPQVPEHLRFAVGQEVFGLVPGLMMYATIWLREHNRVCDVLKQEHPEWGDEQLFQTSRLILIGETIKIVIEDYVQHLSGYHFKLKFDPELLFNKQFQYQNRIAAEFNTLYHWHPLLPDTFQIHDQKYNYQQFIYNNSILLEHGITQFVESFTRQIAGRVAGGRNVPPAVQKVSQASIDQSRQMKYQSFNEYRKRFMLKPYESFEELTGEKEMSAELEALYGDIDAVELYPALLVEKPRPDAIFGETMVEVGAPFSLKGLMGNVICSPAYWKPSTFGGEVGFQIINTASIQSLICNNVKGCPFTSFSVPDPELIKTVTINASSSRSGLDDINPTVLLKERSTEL

Homo sapiens = species: Homo sapiens; experiment: Selectivity index, ratio of IC50 for […]

Prostaglandin G/H synthase 1, sequence (P23219 whole entry): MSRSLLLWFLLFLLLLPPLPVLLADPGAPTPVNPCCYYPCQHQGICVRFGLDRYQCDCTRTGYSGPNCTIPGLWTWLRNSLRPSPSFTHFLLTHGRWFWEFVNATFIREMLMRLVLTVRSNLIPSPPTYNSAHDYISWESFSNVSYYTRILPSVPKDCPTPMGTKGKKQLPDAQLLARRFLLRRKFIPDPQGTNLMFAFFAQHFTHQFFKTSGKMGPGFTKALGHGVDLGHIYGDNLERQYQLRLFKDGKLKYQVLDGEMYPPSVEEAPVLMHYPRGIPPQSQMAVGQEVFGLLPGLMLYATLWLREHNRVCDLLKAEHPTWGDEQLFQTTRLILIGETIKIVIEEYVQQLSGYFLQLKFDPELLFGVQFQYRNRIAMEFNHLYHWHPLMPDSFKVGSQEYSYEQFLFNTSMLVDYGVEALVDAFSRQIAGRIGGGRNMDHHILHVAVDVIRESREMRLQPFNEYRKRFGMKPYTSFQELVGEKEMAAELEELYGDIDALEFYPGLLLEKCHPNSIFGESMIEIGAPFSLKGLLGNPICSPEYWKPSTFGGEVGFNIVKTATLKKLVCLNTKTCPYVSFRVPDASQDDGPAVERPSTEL

| IC50 [1] | IC50 [2] | Ratio IC50 (Homo sapiens) | Structure (SMILES) |
| --- | --- | --- | --- |
| > 100 µM | 160 nM | > 625 | COc1ccc(N2C(=O)CSC2c2ccc(S(C)(=O)=O)cc2)cc1 (configuration not stated) |
| 96.1 µM | 200 nM | 480 | CS(=O)(=O)c1ccc(C2SCC(=O)N2c2ccccc2)cc1 (configuration not stated) |
| 53.9 µM | 150 nM | 359 | Cc1ccc(N2C(=O)CSC2c2ccc(S(C)(=O)=O)cc2)cc1 (configuration not stated) |

| Structure (SMILES) | IC50 [1] | IC50 [2] | Ratio IC50 (Homo sapiens) |
| --- | --- | --- | --- |
| CS(=O)(=O)c1ccc(C2SCC(=O)N2c2ccc(F)cc2)cc1 (configuration not stated) | > 100 µM | 120 nM | > 833 |

From ChEMBL document CHEMBL1139828, “Synthesis of 2,3-diaryl-1,3-thiazolidine-4-one derivatives as selective cyclooxygenase (COX-2) inhibitors” (Bioorg Med Chem Lett, 2007)
